Results on 29 compounds are retold here after patent publication US7473790B2 (Pfizer Inc., priority 2003, dated 2009).

The target of the assay is T1, HCV polymerase (Hepatitis C virus genotype 1b, UniProt P26663).
T1 construct: 2.5 pmoles (0.15 μg) HCV polymerase protein in a final volume of 75 μL
Kind of assay: HCV polymerase primer/template-directed transcription assay (32P-GTP incorporation, filter binding). Type of assay: biochemical. To be noted: for IC50: recombinant HCV polymerase, 30 minutes at 30° C., concentration giving 50% inhibition of polymerase-directed transcription, read-out: IC50; for inhibition at 50 µM: @ 50 uM compound, given where IC50 was impractical to calculate, read-out: percent inhibition. Here is the method:
The compounds described herein were tested for activity with HCV polymerase. Recombinant HCV polymerase was tested for its ability to perform primer/template-directed transcription in assays that contained 30 mM tris-HCl pH 7.2, 10 mM MgCl2, 20 mM NaCl, 1 mM Dithiothreitol (DTT), 0.05% Tween-20, 1% glycerol, 5 pmoles biotin-dG12 (primer), 0.5 pmoles poly(rC)300 (template), 1 μM GTP, 0.1-0.3 uCi α-^32P-GTP, and 2.5 pmoles (0.15 μg) HCV polymerase protein in a final volume of 75 μL. Reactions were initiated by addition of enzyme and incubated 30 minutes at 30° C. Reactions were stopped by addition of 33 mM EDTA, and polynucleotide products were collected by filtration through Diethylaminoethyl (DE) Filtermat papers (Wallac). Unincorporated triphosphate was removed by washing the filters with 5% dibasic sodium phosphate. The filters were counted in a Packard Tri-Lux Microbeta scintillation counter (Packard Bioscience, Meriden, Conn.). Compounds to be tested were added at various concentrations, e.g., 1 μm to 50 μm, from stocks in 10% DMSO-water (final DMSO is 1% in reaction).
IC50 values were estimated from the primary cpm data (collected in triplicate) using the formula: cpm (I)=cpm(no inhibitor)(1−([I]/([I]+IC50))). An IC50 value represents the concentration (in μM) of a compound that provides 50% inhibition of polymerase-directed transcription in the above assay. A percent inhibition value is expressed for a compound where it was impractical to calculate an IC50 value with available data. If the IC50 estimated by the above equation was less than 200 nM, it was recalculated using the following equation, which takes into account the enzyme concentration (30 nM) in the assay: cpm(I)=cpm(no inhibitor)(1−((((I+IC50+30e−9)−sqrt(((I+IC50+30e−9)^2)−4×30e−9×I)))/((2)(30e−9))). Curve fitting was performed using the program KaleidaGraph (Synergy Software, Reading, Pa.).

T1 sequence (P26663 2420-3010): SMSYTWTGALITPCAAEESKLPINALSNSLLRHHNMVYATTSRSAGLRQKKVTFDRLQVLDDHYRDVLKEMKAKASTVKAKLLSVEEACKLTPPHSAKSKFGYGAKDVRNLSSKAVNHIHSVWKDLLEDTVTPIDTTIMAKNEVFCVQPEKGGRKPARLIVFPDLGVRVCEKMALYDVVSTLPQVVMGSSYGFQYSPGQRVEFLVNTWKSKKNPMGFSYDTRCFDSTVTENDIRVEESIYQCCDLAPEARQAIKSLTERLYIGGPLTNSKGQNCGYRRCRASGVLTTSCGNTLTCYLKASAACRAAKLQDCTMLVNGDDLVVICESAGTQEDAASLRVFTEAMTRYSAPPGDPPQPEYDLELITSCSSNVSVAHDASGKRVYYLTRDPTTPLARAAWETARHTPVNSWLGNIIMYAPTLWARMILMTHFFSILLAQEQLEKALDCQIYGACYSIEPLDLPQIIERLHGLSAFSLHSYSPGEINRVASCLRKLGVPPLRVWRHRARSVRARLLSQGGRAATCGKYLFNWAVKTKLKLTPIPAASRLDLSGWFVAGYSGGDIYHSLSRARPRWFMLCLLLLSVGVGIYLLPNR

For the compound `COc1ccc(CCC2(C3CCCC3)CC(O)=C(Sc3nc4cc(C)ccc4[nH]3)C(=O)O2)cc1Cl` (centres unmarked) [C(53), 6-[2-(3-chloro-4-methoxyphenyl)ethyl]-6-cyclopentyl-4-hydroxy-3-[(5-methyl-1H-benzimidazol-2-yl)thio]-5,6-dihydro-2H-pyran-2-one], the half-inhibitory concentration (IC50) amounted to 67 nM. Consider `COc1cc(OC)c(CCC2(C3CCCC3)CC(O)=C(Sc3nnc(O)n3C(C)C)C(=O)O2)cc1Cl` (centres unmarked) [C(80), 6-[2-(5-chloro-2,4-dimethoxyphenyl)ethyl]-6-cyclopentyl-4-hydroxy-3-[(5-hydroxy-4-isopropyl-4H-1,2,4-triazol-3-yl)thio]-5,6-dihydro-2H-pyran-2-one], for which the IC50 was 31 nM. For `CC(C)(C#N)c1ccc(CCC2(C3CCCC3)CC(O)=C(Cc3nc4ncc(Cl)cn4n3)C(=O)O2)cc1Cl` (centres unmarked) [A(198), 2-(2-Chloro-4-{2-[5-(6-chloro-[1,2,4]triazolo[1,5-a]pyrimidin-2-ylmethyl)-2-cyclopentyl-4-hydroxy-6-oxo-3,6-dihydro-2H-pyran-2-yl]-ethyl}-phenyl)-2-methyl-propionitrile], the IC50 stood at 16 nM. In the case of `COc1ccc(CCC2(C3CCCC3)CC(O)=C(C(C)=O)C(=O)O2)cc1Cl` (centres unmarked) [B(88), 3-Acetyl-6-[2-(3-chloro-4-methoxy-phenyl)-ethyl]-6-cyclopentyl-4-hydroxy-5,6-dihydro-pyran-2-one], the IC50 amounted to 5100 nM. As for `CC1(c2cccc(CCC3(C4CCCC4)CC(=O)CC(=O)O3)c2)CC(=O)CC(=O)O1` (centres unmarked) [A(28), 6-Cyclopentyl-6-[2-(3-(6-Methyl-dihydro-pyran-2,4-dione)-phenyl)-ethyl]-dihydro-pyran-2,4-dione], the IC50 turned out to be 3900 nM. On the same count and under the same terms, in the case of `CC(C)(C#N)c1c(F)cc(CCC2(C3CCCC3)CC(O)=C(Cc3nc4ncccn4n3)C(=O)O2)cc1F` (centres unmarked) [A(144), 2-{4-[2-(2-Cyclopentyl-4-hydroxy-6-oxo-5-[1,2,4]triazolo[1,5-a]pyrimidin-2-ylmethyl-3,6-dihydro-2H-pyran-2-yl)-ethyl]-2,6-difluoro-phenyl}-2-methyl-propionitrile] it was 11 nM. On the same count and under the same terms, the same measure for `N#CC1(c2ccc(CCC3(C4CCCC4)CC(=O)CC(=O)O3)cc2F)CCCC1` (centres unmarked) [A(189), 1-{4-[2-(2-Cyclopentyl-4,6-dioxo-tetrahydro-pyran-2-yl)-ethyl]-2-fluoro-phenyl}-cyclopentanecarbonitrile]: 2900 nM; for `N#CC1(c2c(F)cc(CCC3(C4CCCC4)CC(=O)CC(=O)O3)cc2F)CC1` (centres unmarked) [A(255), 1-{4-[2-(2-Cyclopentyl-4,6-dioxo-tetrahydro-pyran-2-yl)-ethyl]-2,6-difluoro-phenyl}-cyclopropanecarbonitrile]: 1900 nM; for `CCc1cc(CCC2(C3CCCC3)CC(O)=C(Cc3nc4ncc(Cl)cn4n3)C(=O)O2)ccc1O` (centres unmarked) [A(127), 3-(6-Chloro-[1,2,4]triazolo[1,5-a]pyrimidin-2-ylmethyl)-6-cyclopentyl-6-[2-(3-ethyl-4-hydroxy-phenyl)-ethyl]-4-hydroxy-5,6-dihydro-pyran-2-one]: 5 nM.

In the case of `O=C1OC(CCC2CCCCC2)(C2CCCC2)CC(O)=C1Sc1nnc(-c2ccncc2)[nH]1` (centres unmarked) [C(27), 6-(2-Cyclohexyl-ethyl)-6-cyclopentyl-4-hydroxy-3-(5-pyridin-4-yl-4H-[1,2,4]triazol-3-ylsulfanyl)-5,6-dihydro-pyran-2-one], the IC50 was 2500 nM. Turning to `COc1ccc(CCC2(C3CCCC3)CC(=O)C(Cc3ccccc3)C(=O)O2)cc1` (centres unmarked) [B(77), 3-benzyl-6-cyclopentyl-6-[2-(4-methoxyphenyl)ethyl]dihydro-2H-pyran-2,4(3H)-dione], the IC50 was found to be 5500 nM. In the case of `COc1ccc(CCC2(C3CCCC3)CC(O)=C(Sc3nnc(C)n3C)C(=O)O2)cc1Cl` (centres unmarked) [C(99), 6-[2-(3-chloro-4-methoxyphenyl)ethyl]-6-cyclopentyl-3-[(4,5-dimethyl-4H-1,2,4-triazol-3-yl)thio]-4-hydroxy-5,6-dihydro-2H-pyran-2-one], the IC50 is 79 nM. The same measure, in the same setting: in the case of `COc1ccc(CCC2(C3CCCC3)CC(O)=C(SCCc3ccccn3)C(=O)O2)cc1Cl` (centres unmarked) [C(109), 6-[2-(3-Chloro-4-methoxy-phenyl)-ethyl]-6-cyclopentyl-4-hydroxy-3-(2-pyridin-2-yl-ethylsulfanyl)-5,6-dihydro-pyran-2-one] it was 900 nM; in that of `CCc1cc(CCC2(C3CCCC3)CC(O)=C(Cc3nc4nc(C)cc(C)n4n3)C(=O)O2)c(OC)cc1O` (single isomer, unassigned; (-)) [A(155), (−)-6-Cyclopentyl-3-(5,7-dimethyl-[1,2,4]triazolo[1,5-a]pyrimidin-2-ylmethyl)-6-[2-(5-ethyl-4-hydroxy-2-methoxy-phenyl)-ethyl]-4-hydroxy-5,6-dihydro-pyran-2-one], 3 nM. Regarding `CC(=O)n1nc(C)c(CCC2(C3CCCC3)CC(=O)CC(=O)O2)c1C` (centres unmarked) [A(19), 6-[2-(1-Acetyl-3,5-dimethyl-1H-pyrazol-4-yl)-ethyl]-6-cyclopentyl-dihydro-pyran-2,4-dione], the inhibition at 50 µM was 37%. As to `Cc1cc(C)n2nc(SC3=C(O)CC(CCc4ccc(-c5c(C)noc5C)cc4)(C4CCCC4)OC3=O)nc2n1` (centres unmarked) [C(13), 6-Cyclopentyl-6-{2-[4-(3,5-dimethyl-isoxazol-4-yl)-phenyl]-ethyl}-3-(5,7-dimethyl-[1,2,4]triazolo[1,5-a]pyrimidin-2-ylsulfanyl)-4-hydroxy-5,6-dihydro-pyran-2-one], the IC50 was 16 nM. As to `Cc1nc[nH]c1CC1C(=O)CC(CCc2ccc(C(C)(C)C#N)c(F)c2)(C2CCCC2)OC1=O` (centres unmarked) [A(107), 2-(4-{2-[2-Cyclopentyl-5-(5-methyl-3H-imidazol-4-ylmethyl)-4,6-dioxo-tetrahydro-pyran-2-yl]-ethyl}-2-fluoro-phenyl)-2-methyl-propionitrile], the IC50 worked out at 360 nM.

As to `CC(C)(C#N)c1ccc(CCC2(C3CCCC3)CC(=O)C(Cc3nc4ncccn4n3)C(=O)O2)cc1F` (racemic) [A(104), 2-{4-[2-(2-Cyclopentyl-4,6-dioxo-5-[1,2,4]triazolo[1,5-a]pyrimidin-2-ylmethyl-tetrahydro-pyran-2-yl)-ethyl]-2-fluoro-phenyl}-2-methyl-propionitrile], the IC50 stood at 8 nM. Regarding `COc1ccc(CCC2(C3CCCC3)CC(=O)C(Cc3cn4cccnc4n3)C(=O)O2)cc1Cl` (centres unmarked) [B(83), 6-[2-(3-chloro-4-methoxyphenyl)ethyl]-6-cyclopentyl-3-(imidazo[1,2-a]pyrimidin-2-ylmethyl)dihydro-2H-pyran-2,4(3H)-dione], the IC50 was found to be 360 nM. Regarding `CC(C)c1ccc(CCC2(C3CCCC3)CC(=O)CC(=O)O2)cc1Cl` (centres unmarked) [A(63), 6-[2-(3-chloro-4-isopropylphenyl)ethyl]-6-cyclopentyldihydro-2H-pyran-2,4(3H)-dione], the IC50 is 11000 nM. With `COc1cc(OC)c(CCC2(C3CCCC3)CC(O)=C(Cc3cc(=O)n4c(C)csc4n3)C(=O)O2)cc1Cl` (centres unmarked) [B(59), 7-({6-[2-(5-Chloro-2,4-dimethoxyphenyl)ethyl]-6-cyclopentyl-4-hydroxy-2-oxo-5,6-dihydro-2H-pyran-3-yl}methyl)-3-methyl-5H-[1,3]thiazolo[3,2-a]pyrimidin-5-one], the 50% inhibitory concentration (IC50) stood at 6 nM. For the compound `CC(C)Oc1ccc(CCC2(C3CCCC3)CC(O)=C(Sc3nc4cc(Cl)ccc4n3C(C)C)C(=O)O2)cc1F` (centres unmarked) [C(02)], the IC50 turned out to be 14 nM. With `CCC1(CCc2ccc(OC)cc2)CC(=O)CC(=O)O1` (centres unmarked) [A(23), 6-Ethyl-6-[2-(4-methoxy-phenyl)-ethyl]-dihydro-pyran-2,4-dione], the inhibition at 50 µM is 1%. On to `CC(C)(C)C1(c2ccc(CCC3(C4CCCC4)CC(=O)CC(=O)O3)cc2)OCCO1` (centres unmarked) [A(34), 6-{2-[4-(2-tert-Butyl-[1,3]dioxolan-2-yl)-phenyl]-ethyl}-6-cyclopentyl-dihydro-pyran-2,4-dione], for which the IC50 was 10000 nM.

With `CCOc1ccc(CCC2(C3CCCC3)CC(=O)CC(=O)O2)cc1C` (centres unmarked) [A(03), 6-Cyclopentyl-6-[2-(4-ethoxy-3-methyl-phenyl)-ethyl]-dihydro-pyran-2,4-dione], the IC50 came out at 4300 nM.

For `N#CC1(c2ccc(CCC3(C4CCCC4)CC(=O)CC(=O)O3)cc2Cl)CC1` (centres unmarked) [A(149), 1-{2-Chloro-4-[2-(2-cyclopentyl-4,6-dioxo-tetrahydro-pyran-2-yl)-ethyl]-phenyl}-cyclopropanecarbonitrile], the concentration for half-maximal inhibition (IC50) is 3900 nM.

Turning to `O=C1CC(=O)OC(CCc2ccc(OC(F)F)cc2)(C2CCCC2)C1` (centres unmarked) [A(58), 6-Cyclopentyl-6-[2-(4-difluoromethoxy-phenyl)-ethyl]-dihydro-pyran-2,4-dione], the IC50 was 6500 nM. Still for that read-out and setting: the same measure for `O=C(O)COc1ccc(CCC2(C3CCCC3)CC(=O)CC(=O)O2)cc1Cl` (centres unmarked) [A(54)]: 2900 nM. Consider `CC(=O)c1ccc(CCC2(C3CCCC3)CC(=O)CC(=O)O2)s1` (centres unmarked) [A(84), 6-[2-(5-Acetyl-thiophen-2-yl)-ethyl]-6-cyclopentyl-dihydro-pyran-2,4-dione], for which the 50% inhibitory concentration (IC50) was found to be 6800 nM.

By IC50 is commonly meant the concentration that inhibits the measured activity by half. In general, inhibition refers to how much of the control response was suppressed.
